Read-outs that look alike come from different tables or passages of the source. Bridge positions count the residues as written; N and C are the ends. Square brackets hold non-standard residues; d marks the D form. Ends that are not written are not given here. Peptide text beside a SMILES is read from it. R8 = C=CCCCCCC[C@@](C)(N)C(=O)O; S5 = C=CCCC[C@](C)(N)C(=O)O
Assays:
[1] = system: HER2; assay: EGF-induced endolysosomal degradation of HER2, Western blot; assay type: cell-based; details: SKBR3, 2 μM, 200 ng/ml EGF
Protocol: (§1) FIG. 9 is a schematic diagram of the result showing peptides based on (I7-01s) scaffold are potent inducers of endolysosomal trafficking. (a-c) Western blot to assess the HER2 and EGFR levels in SKBR3 cells. Cells are starved overnight and are treated with 200 ng/ml EGF respectively with vehicle control (a), 2 μM Tat-SP4 (b), 2 μM i7-01s-31 (c). (d & e) Time-dependent plots to quantify HER2 and EGFR degradation profiles after three independent experiments. The levels of HER2 (d) and EGFR (e) are normalized to the β-actin level at different time points and then further normalized to time 0, when the ligand EGF is added. Data are presented as mean±SEM (n=3).
In some embodiments, the Beclin 1-targeting stapled peptide provided by the present disclosure can effectively promote endolysosomal trafficking. As a scaffolding member of the PI3KC3 complex, Beclin 1 is essential for multiple PI3KC3-dependent processes including autophagy, endolysosomal trafficking and phagocytosis. To assess the efficacy of the newly designed peptides on the endolysosomal trafficking process, the ligand-induced endolysosomal degradation of cell surface receptors HER2 and EGFR is characterized by western blotting using SKBR3 breast cancer cell line that over-expresses both EGFR and HER2. […] In contrast, i7-01s-31 treatment at 2 μM results in significant reduction of HER2 level, with about 50% decrease at 15 hours post EGF stimulation, and about 70% decrease at 24 hours (as shown in FIGS. 9c & 9d). i7-01s-31 treatment also strongly promotes EGFR degradation, with approximately 60% reduction at 15 hours post EGF stimulation (as shown in FIGS. 9c & 9e).
Whole cell lysates are extracted using Laemmli sample buffer (62.5 mM Tris-HCl, pH 6.8, 2% SDS, 25% glycerol, 5% β-mercaptoethanol) supplemented with EDTA-free protease inhibitor cocktail (Roche). Protein concentration is determined using a standard Bradford assay before immunoblotting. Protein samples are separated by SDS-PAGE, transferred to a PVDF membrane (Millipore, USA), and incubated with the primary antibodies and HRP-conjugated secondary antibodies. […]

[2] = system: EGFR; assay: EGF-induced endolysosomal degradation of EGFR, Western blot; assay type: cell-based; details: SKBR3, 2 μM, 200 ng/ml EGF
Protocol: as §1
In some embodiments, the Beclin 1-targeting stapled peptide provided by the present disclosure can effectively promote endolysosomal trafficking. As a scaffolding member of the PI3KC3 complex, Beclin 1 is essential for multiple PI3KC3-dependent processes including autophagy, endolysosomal trafficking and phagocytosis. […]
Whole cell lysates are extracted using Laemmli sample buffer (62.5 mM Tris-HCl, pH 6.8, 2% SDS, 25% glycerol, 5% β-mercaptoethanol) supplemented with EDTA-free protease inhibitor cocktail (Roche). Protein concentration is determined using a standard Bradford assay before immunoblotting. […]

[3] = system: SKBR3 cells; assay: Flow cytometry with Annexin V FITC-PI staining; assay type: cell-based
Protocol: FIG. 12 is a schematic diagram of the result showing the peptides based on strategy (i7-01s) scaffold induce cell death with necrotic features. Flow cytometry analysis with Annexin V FITC-PI staining is performed in SKBR3 cells after treatment of the indicated peptides for 24 hours.
The degree of cellular apoptosis and necrosis is assessed by flow cytometry following the standard protocol provided by the manufacturer. Briefly, SKBR3 cells after the indicated peptide treatment are harvested by trypsin, labelled with Annexin V and PI (Invitrogen), subjected to flow cytometer system (BD Accuri C6), and analyzed by BD Accuri C6 software. The cell populations can be distinguished by the staining of Annexin V/PI. Typically, cellular population in the lower left quadrant is live cells (Annexin V^−, PI^−), the lower right quadrant represents early apoptotic cells (Annexin V^+, PI^−), the upper right quadrant represents late apoptotic cells (Annexin V^+, PI^+), the upper left quadrant represents necrotic cells (Annexin V^−, PI^+).

[4] = biological target: T1, Beclin 1 coiled coil domain (Homo sapiens, UniProt Q14457); assay: Isothermal titration calorimetry (ITC) binding affinity; details: 25° C., pH 7.4, Tat-fused peptide
T1 construct: the coiled coil domain of human Beclin 1 (residues 176-268); thioredoxin-6xHis fusion tag with HRV 3C protease cleavage site; made in house; host or cells: Escherichia coli BL21(DE3)
Protocol: The expression and purification of Beclin 1 coiled coil domain is performed as described previously. Briefly, the coiled coil domain of human Beclin 1 (residues 176-268) is cloned into the modified pET32a vector containing the human rhinovirus (HRV) 3C protease cleavage site and thioredoxin-6×His fusion tag. Recombinant protein for the Beclin1 coiled oil domain is expressed in Escherichia coli BL21(DE3) and purified by Ni^2+-NTA affinity chromatography (His Trap HP, GE Healthcare) first and followed by size-exclusion chromatography (Superdex 75, GE Healthcare).
ITC assays are carried out by MicroCal PEAQ-ITC Automated (Marvern) at 25° C. All designed peptides and purified protein for the Beclin 1 coiled coil domain are dialyzed into the buffer containing 50 mM Tris, 150 mM NaCl at pH 7.4. For each titration assay, the injection syringe is loaded with 40 μl of peptide and the cell is loaded with Beclin 1 coiled coil domain protein. Typically, titrations consist of 19 injections, and each injection is performed at a time interval of 180 seconds to ensure that the titration peak returns to the baseline. The titration data are analyzed using the MicroCal PEAQ-ITC Analysis software and fitted by the one-site binding model.

T1 sequence (Q14457 176-268): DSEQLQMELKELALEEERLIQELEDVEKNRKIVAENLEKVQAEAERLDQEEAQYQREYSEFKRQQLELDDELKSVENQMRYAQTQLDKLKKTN

Row | Molecule | change of Annexin V positive cells (apoptosis) ([3]; SKBR3, 24 hours) | Kd [4] | further results
1 | CC[C@H](C)[C@H](NC(=O)[C@H](CC(C)C)NC(=O)[C@H](CCCNC(=N)N)NC(=O)[C@H](CCCNC(=N)N)NC(=O)[C@H](CCCNC(=N)N)NC(=O)[C@H](CCCNC(=N)N)NC(=O)[C@H](CCC(N)=O)NC(=O)[C@H](CCCNC(=N)N)NC(=O)[C@H](CCCNC(=N)N)NC(=O)[C@H](CCCCN)NC(=O)[C@H](CCCCN)NC(=O)[C@H](CCCNC(=N)N)NC(=O)CNC(=O)[C@H](Cc1ccc(O)cc1)NC(C)=O)C(=O)N[C@@H](CO)C(=O)N[C@@H](CCC(=O)O)C(=O)N[C@@H](CC(C)C)C(=O)N[C@]1(C)CCCCCCC=CCCC[C@@](C)(C(=O)N[C@@H](C)C(N)=O)NC(=O)[C@H](CCCNC(=N)N)NC(=O)[C@H](CCC(N)=O)NC(=O)[C@H](CCCCN)NC(=O)[C@H](CCC(=O)O)NC(=O)[C@H](CCCNC(=N)N)NC(=O)[C@H](CC(=O)O)NC1=O [Tat-SP4, Ac-[Tat]-RLISEL(R8)DREKQR(S5)A-NH2, reference compound] (Ac-YGRKKRRQRRRRLISEL[R8]DREKQR[S5]A-NH2; staple 18-25) | no increase | – | HER2 degradation profile [1]: does not show any noticeable impact; EGFR degradation profile [2]: does not show any noticeable impact; PI positive cells ([3]; SKBR3, 10 μM, 24 hours): approximately 8%; change of PI positive staining cells (dead cells) ([3]; SKBR3, 24 hours): significant increase
2 | COc1cccc2c1C(=O)c1c(O)c3c(c(O)c1C2=O)C[C@@](O)(C(=O)CO)C[C@@H]3O[C@H]1C[C@H](N)[C@H](O)[C@H](C)O1 [doxorubicin, reference compound] | significant increase | – | –
3 | CC[C@H](C)[C@H](NC(=O)[C@H](CC(C)C)NC(=O)[C@H](C)NC(=O)[C@H](CCCNC(=N)N)NC(=O)[C@H](CCCNC(=N)N)NC(=O)[C@H](CCCNC(=N)N)NC(=O)[C@H](CCC(N)=O)NC(=O)[C@H](CCCNC(=N)N)NC(=O)[C@H](CCCNC(=N)N)NC(=O)[C@H](CCCCN)NC(=O)[C@H](CCCCN)NC(=O)[C@H](CCCNC(=N)N)NC(=O)CNC(=O)[C@H](Cc1ccc(O)cc1)NC(C)=O)C(=O)N[C@@H](CCC(N)=O)C(=O)N[C@]1(C)CCCCCCC=CCCC[C@@](C)(C(=O)N[C@@H](CCCNC(=N)N)C(=O)N[C@@H](CCCCN)C(=O)N[C@@H](CCCNC(=N)N)C(N)=O)NC(=O)[C@H](CCCCN)NC(=O)[C@H](CCC(=O)O)NC(=O)[C@H](C(C)C)NC(=O)[C@H](CC(=O)O)NC(=O)[C@H](CCC(=O)O)NC(=O)[C@H](CCC(N)=O)NC1=O [i7-01s-54, Ace-ALIQR8QEDVEKS5RKR-Nme] (Ac-YGRKKRRQRRRALIQ[R8]QEDVEK[S5]RKR-NH2; staple 16-23) | – | – | Kd ([4]; read-out: Kd): 311 ± 54.6 µM
4 | Ace-RFIQR8LEVVIKS5RSV-Nme (Ac-RFIQ[R8]LEVVIK[S5]RSV; staple 5-12; not fully specified (C-terminus); printed as Ace-RFIQR8LEVVIKS5RSV-Nme) [i7-01s-34] | – | No binding | –
5 | Ace-RLIQR8REDVEKS5RKR-Nme (Ac-RLIQ[R8]REDVEK[S5]RKR; staple 5-12; not fully specified (C-terminus); printed as Ace-RLIQR8REDVEKS5RKR-Nme) [i7-01s-36] | – | No binding | –
6 | Ace-RLLQR8LKTVLKS5RSV-Nme (Ac-RLLQ[R8]LKTVLK[S5]RSV; staple 5-12; not fully specified (C-terminus); printed as Ace-RLLQR8LKTVLKS5RSV-Nme) [i7-01s-30] | – | No binding | –

Source: US20240190920A1, “BECLIN 1-TARGETED STAPLED PEPTIDE AND PHARMACEUTICAL COMPOSITION” (Shenzhen Research Institute of the Hong Kong Polytechnic …, priority 2021, published 2024)
